Laboratory results published in patent publication US10435401B2, “Pesticidally active tetracyclic derivatives with sulphur containing substituents” (Syngenta Participations AG, priority 2014, dated 2019).

Experiments:
Format in all cases: in vivo
[1] = test system: Tetranychus urticae (Two-Spotted Spider Mite); assay: Tetranychus urticae feeding/contact activity; settings: foliar, 192 h, application rate of 200 ppm, mite population of mixed ages (mobile stages) on sprayed bean leaf discs, 8 days after infestation
Experimental: Example B11: Tetranychus urticae (Two-Spotted Spider Mite):Feeding/Contact Activity
Bean leaf discs on agar in 24-well microtiter plates were sprayed with aqueous test solutions prepared from 10′000 ppm DMSO stock solutions. After drying the leaf discs were infested with a mite population of mixed ages. The samples were assessed for mortality on mixed population (mobile stages) 8 days after infestation.

[2] = test system: Myzus persicae (Green Peach Aphid); assay: Myzus persicae intrinsic activity; settings: 120 h, test rate of 12 ppm, compound in sucrose solution under Parafilm, 5 days after infestation
Text: Example B7: Myzus persicae (Green Peach Aphid): Intrinsic Activity
Test compounds from 10′000 ppm DMSO stock solutions were applied by pipette into 24-well microtiter plates and mixed with sucrose solution. The plates were closed with a stretched Parafilm. A plastic stencil with 24 holes was placed onto the plate and infested pea seedlings were placed directly on the Parafilm. The infested plate was closed with a gel blotting paper and another plastic stencil and then turned upside down. The samples were assessed for mortality 5 days after infestation.

[3] = test system: Bemisia tabaci (Cotton White Fly); assay: Bemisia tabaci feeding/contact activity; settings: foliar, 144 h, application rate of 200 ppm, adult white flies on sprayed cotton leaf discs, 6 days after incubation
Experimental: Example B1: Bemisia tabaci (Cotton White Fly): Feeding/Contact Activity
Cotton leaf discs were placed on agar in 24-well microtiter plates and sprayed with aqueous test solutions prepared from 10′000 ppm DMSO stock solutions. After drying the leaf discs were infested with adult white flies. The samples were checked for mortality 6 days after incubation.

[4] = test system: Frankliniella occidentalis (Western Flower Thrips); assay: Frankliniella occidentalis feeding/contact activity; settings: foliar, 168 h, application rate of 200 ppm, population of mixed ages on sprayed sunflower leaf discs, 7 days after infestation
Experimental: Example B4: Frankliniella occidentalis (Western Flower Thrips): Feeding/Contact Activity
Sunflower leaf discs were placed on agar in 24-well microtiter plates and sprayed with aqueous test solutions prepared from […] stock solutions. After drying the leaf discs were infested with a Frankliniella population of mixed ages. The samples were assessed for mortality 7 days after infestation.

[5] = test system: Aedes aegypti (Yellow Fever Mosquito); assay: whole plant or invertebrate; settings: 48 h, test rate of 5 ppm, L2 larvae in 96-well plates, 2 days incubation, read-out: effect in at least one of the two categories (mortality or growth inhibition)
Experimental: Example B12: Aedes aegypti (Yellow Fever Mosquito): Feeding Contact Activity
10 to 15 Aedes larvae (L2) together with a nutrition mixture were placed in 96-well microtiter plates. Test compounds were pipetted into the wells. After an incubation period of 2 days insects were assessed for mortality and growth inhibition.

[6] = test system: Diabrotica balteata (Corn Root Worm); assay: Diabrotica balteata feeding/contact activity; settings: 96 h, application rate of 200 ppm, L2 larvae on sprayed maize sprouts, 4 days after infestation
Experimental: Example B2: Diabrotica balteata (Corn Root Worm): Feeding/Contact Activity
Maize sprouts, placed on an agar layer in 24-well microtiter plates were treated with aqueous test solutions prepared from 10′000 ppm DMSO stock solutions by spraying. After drying, the plates were infested with L2 larvae (6 to 10 per well). The samples were assessed for mortality and growth inhibition in comparison to untreated samples 4 days after infestation.

[7] = test system: Myzus persicae (Green Peach Aphid); assay: Myzus persicae systemic activity; settings: 144 h, test rate of 24 ppm, roots of infested pea seedlings in test solution, 6 days
Experimental: Example B6: Myzus persicae (Green Peach Aphid): Systemic Activity
Roots of pea seedlings infested with an aphid population of mixed ages were placed directly in the aqueous test solutions prepared from 10′000 ppm DMSO stock solutions. The samples were assessed for mortality 6 days after placing seedlings in test solutions.

[8] = test system: Myzus persicae (Green Peach Aphid); assay: Myzus persicae feeding/contact activity; settings: foliar, 144 h, application rate of 200 ppm, aphid population of mixed ages on sprayed sunflower leaf discs, 6 days after infestation
Experimental: Example B5: Myzus persicae (Green Peach Aphid): Feeding/Contact Activity
Sunflower leaf discs were placed on agar in a 24-well microtiter plate and sprayed with aqueous test solutions prepared from 10′000 ppm DMSO stock solutions. After drying, the leaf discs were infested with an aphid population of mixed ages. The samples were assessed for mortality 6 days after infestation.

[9] = test system: Spodoptera littoralis (Egyptian Cotton Leaf Worm); assay: Spodoptera littoralis systemic activity; settings: 144 h, test rate of 12.5 ppm, compound in agar taken up by lettuce roots, 6 days after infestation, read-out: effect in at least one of the three categories (mortality, anti-feedancy, or growth inhibition)
Experimental: Example B10: Spodoptera littoralis (Egyptian Cotton Leaf Worm): Systemic Activity
Test compounds were applied by pipette from 10′000 ppm DMSO stock solutions into 24-well plates and mixed with agar. […] […] […] Spodoptera eggs were pipetted through a plastic stencil on a humid gel blotting paper and the plate closed with it. The samples were assessed for mortality, anti-feedant effect and growth inhibition in comparison to untreated samples 6 days after infestation.

[10] = test system: Plutella xylostella (Diamond Back Moth); assay: Plutella xylostella feeding/contact activity; settings: 120 h, application rate of 200 ppm, L2 larvae on treated artificial diet, 5 days after infestation, read-out: effect in at least one of the two categories (mortality or growth inhibition)
Experimental: Example B8: Plutella xylostella (Diamond Back Moth): Feeding/Contact Activity
24-well microtiter plates with artificial diet were treated with aqueous test solutions prepared from 10′000 ppm DMSO stock solutions by pipetting. After drying, the plates were infested with L2 larvae (10 to 15 per well). The samples were assessed for mortality and growth inhibition in comparison to untreated samples 5 days after infestation.

[11] = test system: Spodoptera littoralis (Egyptian Cotton Leaf Worm); assay: Spodoptera littoralis feeding/contact activity; settings: foliar, 72 h, application rate of 200 ppm, L1 larvae on sprayed cotton leaf discs, 3 days after infestation, read-out: control (at least one of mortality, anti-feedant effect, growth inhibition)
Experimental: Example B9: Spodoptera littoralis (Egyptian Cotton Leaf Worm): Feeding/Contact Activity
Cotton leaf discs were placed on agar in 24-well microtiter plates and sprayed with aqueous test solutions prepared from 10′000 ppm DMSO stock solutions. After drying the leaf discs were infested with five L1 larvae. The samples were assessed for mortality, anti-feedant effect, and growth inhibition in comparison to untreated samples 3 days after infestation. Control of Spodoptera littoralis by a test sample is when at least one of mortality, anti-feedant effect, and growth inhibition is higher than the untreated sample.

[12] = test system: Euschistus heros (Neotropical Brown Stink Bug); assay: Euschistus heros feeding/contact activity; settings: 120 h, application rate of 200 ppm, N-2 nymphs on sprayed soybean leaf, 5 days after infestation, read-out: effect in at least one of the two categories (mortality or growth inhibition)
Experimental: Example B3: Euschistus heros (Neotropical Brown Stink Bug): Feeding/Contact Activity
Soybean leaf on agar in 24-well microtiter plates were sprayed with aqueous test solutions prepared from 10′000 ppm DMSO stock solutions. After drying the leaf were infested with N-2 nymphs. The samples were assessed for growth inhibition in comparison to untreated samples 5 days after infestation.

CCS(=O)(=O)c1cc(C(F)(F)F)cnc1-c1nc2cc(C3CC3C#N)cnc2n1C (stereo not drawn) [Compound P4, 2-[2-[3-ethylsulfonyl-5-(trifluoromethyl)-2-pyridyl]-3-methyl-imidazo[4,5-b]pyridin-6-yl]cyclopropanecarbonitrile]
≥ 80%: mortality at 200 ppm [1]

CCS(=O)(=O)c1cc(C(F)(F)F)cnc1-c1nc2cc(C3(C#N)CC3)cnc2n1C [Compound P2, 1-[2-[3-ethylsulfonyl-5-(trifluoromethyl)-2-pyridyl]-3-methyl-imidazo[4,5-b]pyridin-6-yl]cyclopropanecarbonitrile]
≥ 80%: mortality at 12 ppm [2] | mortality at 200 ppm [3] | mortality at 200 ppm [4] | percent effect (mortality or growth inhibition) at 5 ppm [5] | mortality at 200 ppm [6] | mortality at 24 ppm [7] | mortality at 200 ppm [8] | percent control (mortality, anti-feedancy or growth inhibition) at 12.5 ppm [9] | percent effect (mortality or growth inhibition) at 200 ppm [10] | percent control (mortality, anti-feedant effect or growth inhibition) at 200 ppm [11]

CCS(=O)(=O)c1cc(C(F)(F)F)cnc1-c1nc2cc(C3CC3)cnc2n1C [Compound P6]
≥ 80%: mortality at 200 ppm [6] | mortality at 24 ppm [7] | mortality at 200 ppm [8] | percent control (mortality, anti-feedancy or growth inhibition) at 12.5 ppm [9] | percent effect (mortality or growth inhibition) at 200 ppm [10] | percent control (mortality, anti-feedant effect or growth inhibition) at 200 ppm [11] | percent effect (mortality or growth inhibition) at 200 ppm [12]

CCS(=O)(=O)c1cc(C(F)(F)F)cnc1-c1nc2cc(C3CC3)cnc2n1C [Compound P1, 6-cyclopropyl-2-[3-ethylsulfonyl-5-(trifluoromethyl)-2-pyridyl]-3-methyl-imidazo[4,5-b]pyridine]
≥ 80%: mortality at 12 ppm [2]

CCS(=O)(=O)c1cc(C(F)(F)F)cnc1-c1nc2cc(C3(C#N)CCC3)cnc2n1C [Compound P3, 1-[2-[3-ethylsulfonyl-5-(trifluoromethyl)-2-pyridyl]-3-methyl-imidazo[4,5-b]pyridin-6-yl]cyclobutanecarbonitrile]
≥ 80%: mortality at 200 ppm [6]

CCS(=O)(=O)c1cc(C(F)(F)F)cnc1-c1nc2cc(C3CC3(C)C#N)cnc2n1C (stereo not drawn) [Compound P5, 2-[2-[3-ethylsulfonyl-5-(trifluoromethyl)-2-pyridyl]-3-methyl-imidazo[4,5-b]pyridin-6-yl]-1-methyl-cyclopropanecarbonitrile]
≥ 80%: percent control (mortality, anti-feedant effect or growth inhibition) at 200 ppm [11]
